Reference: publication PMC11025371, “Alcohols as inhibitors of ammonia oxidizing archaea and bacteria” (FEMS Microbiology Letters, 2023)
Converted amounts (≈) assume the structure as drawn. “Also recorded” adds a separate entry of the source. Where two headings read alike, the source gives them in different places. Marks after values point to notes of the source that are not given here.

How the values were obtained:
[1] = tested on: ‘Ca. N. franklandus’ C13; test: Whole-cell activity assay, inhibition of ammonia oxidation (nitrite accumulation from 500 µM NH4Cl); format: cell-based, ‘Candidatus Nitrosocosmicus franklandus’ C13; settings: for Lowest fully inhibitory concentration (I) for ammonia oxidation / IC50: 37°C; for Lowest fully inhibitory concentration (I) for ammonia oxidation: full inhibition = lack of sustained nitrite accumulation; for IC50: nitrite accumulation over 1 h, read-out: Half-maximal inhibitory concentration (IC50) of ammonia oxidation
Method: (§1) Nitrosomonas europaea and ‘Ca. N. franklandus’ C13 cells were harvested at mid-exponential phase (∼800 µM NO2^− accumulated) by filtration onto 0.22 µm pore-size membrane filter (PES, Merck Millipore). Cells were then washed and resuspended in FWM salts (i.e. FWM without added NH4Cl and other medium components as described above) buffered with 10 mM HEPES buffer (pH 7). Cells were incubated at 28°C for N. europaea and 37°C for ‘Ca. N. franklandus’ C13 for ∼1 h until endogenous respiration ceased.
(§2) Although these alcohols were added at concentrations above their solubility for the consistency of the experimental design, the limit of solubility was considered when evaluating the results. Reactions were initiated by addition of 500 µM NH4Cl or 200 µM NH2OH. Vials containing N. europaea and ‘Ca. Nitrosocosmicus franklandus’ C13 cells were incubated at 28°C and 37°C, respectively. The activity of cultures was followed by monitoring nitrite accumulation over 1 h, measured in 15 min intervals using Griess reagent in a 96-well plate format as previously described (Lehtovirta-Morley et al. [2014]). The final cell concentration in the activity assays was ∼10^7 cells ml^−1 for both N. europaea and ‘Ca. N. franklandus’ C13, which equate to ∼1.2 and 5.55 µg protein ml^−1, respectively. Cell counts were performed as previously described (Oudova-Rivera et al. [2023]). Protein concentrations were determined using a Pierce bicinchoninic acid (BCA) protein assay kit (Thermo Scientific) according to the manufacturer instructions. One-way ANOVA with LSD post-hoc tests were performed using SPSS statistics software version 27 (IBM).
The reaction velocity of ammonia and hydroxylamine oxidation was determined by measuring the rate of nitrite accumulation over time (µM min^−1). […] The half-maximal inhibitory concentration (IC50) was calculated from the slope and y-axis intercept over the linear part of the curve following the formula: […]
(§3) Inhibition by alcohols was tested at a fixed substrate concentration of 500 µM NH4Cl or 200 µM hydroxylamine for both N. europaea and ‘Ca. N. franklandus’ C13. Ammonia and hydroxylamine concentrations were selected based on previously published Km values and activity assays (Suzuki et al. [1974], Martens-Habbena et al. [2009], Oudova-Rivera et al. [2023]). Fully inhibitory concentrations of alcohols were determined experimentally with a series of activity assays, gradually narrowing down the range of alcohol concentrations applied. Full inhibition was defined as a lack of sustained nitrite accumulation, where there was either no nitrite accumulation at all, or where a minor accumulation of nitrite was initially detected but ceased (potentially due to a delayed effect of the inhibitor).
(§4) Inhibition of ammonia oxidation was tested using whole-cell activity assays with the concentration of alcohols ranging from 2 to 100 mM and fixed substrate ammonia concentration of 500 µM NH4Cl. […] Because hydroxylamine, the product of ammonia oxidation, is a pathway intermediate downstream of AMO, any inhibitors specific to AMO should not interfere with hydroxylamine oxidation.

[2] = tested on: N. europaea; test: as above; format: cell-based, Nitrosomonas europaea; settings: 28°C; for Lowest fully inhibitory concentration (I) for ammonia oxidation: full inhibition = lack of sustained nitrite accumulation; for IC50: nitrite accumulation over 1 h, read-out: Half-maximal inhibitory concentration (IC50) of ammonia oxidation
Method: as §1
as §2, with “. Although” for “Although”
The reaction velocity of ammonia and hydroxylamine oxidation was determined by measuring the rate of nitrite accumulation over time (µM min^−1). The logarithm of the reaction velocity, calculated as a percentage of the non-inhibited control, was plotted against the inhibitor concentration resulting in a linear relationship (Figs. S1 and S2). The half-maximal inhibitory concentration (IC50) was calculated from the slope and y-axis intercept over the linear part of the curve following the formula: […]
as §3

[3] = tested on: N. europaea; set-up: method as in Hooper and Terry [1973]; settings: ref Hooper and Terry [1973]; cited from earlier work
[4] = tested on: ‘Ca. N. franklandus’ C13; test: Whole-cell activity assay with hydroxylamine as substrate (specificity of AMO inhibition); format: cell-based, ‘Candidatus Nitrosocosmicus franklandus’ C13; settings: 200 µM hydroxylamine; for Rate of nitrite accumulation from hydroxylamine oxidation compared to the non-inhibited control: alcohol at its lowest concentration fully inhibitory to ammonia oxidation; for Specificity of inhibition to AMO (effect on hydroxylamine oxidation): fully inhibitory alcohol concentration
Method: as §1, §2, §3, §4

[5] = tested on: N. europaea; test: as above; format: cell-based, Nitrosomonas europaea; settings: 200 µM hydroxylamine; for Rate of nitrite accumulation from hydroxylamine oxidation compared to the control: alcohol at its lowest concentration fully inhibitory to ammonia oxidation; for Specificity of inhibition to AMO (effect on hydroxylamine oxidation): fully inhibitory alcohol concentration
Method: as §1, §2, §3, §4

[6] = physchem; settings: water

| IC50 [1] | IC50 [2] | IC50 ([2]; Nitrosomonas europaea) | solubility [6] | Compound | Lowest fully inhibitory concentration (I) for ammonia oxidation [1] | Lowest fully inhibitory concentration (I) for ammonia oxidation [2] | Concentration giving maximal inhibition [3] | Rate of nitrite accumulation from hydroxylamine oxidation compared to the non-inhibited control [4] | Rate of nitrite accumulation from hydroxylamine oxidation compared to the control [5] | Specificity of inhibition to AMO (effect on hydroxylamine oxidation) [4] | Specificity of inhibition to AMO (effect on hydroxylamine oxidation) [5] | Specificity of inhibition to AMO (effect on hydroxylamine oxidation) ([4]; listed as methanol) | inhibition at 2000 µM ([1]; 2 mM octanol (limit of solubility)) | Lowest fully inhibitory concentration (I) for ammonia oxidation ([1]; listed as octanol) |
| --- | --- | --- | --- | --- | --- | --- | --- | --- | --- | --- | --- | --- | --- | --- |
| 6.2 mM | 13.6 mM | – | – | CCCO [1-Propanol, 1-propanol] | 20 mM | 100 mM | 0.33 M | – | – | – | – | – | – | – |
| 26.8 mM | 32.6 mM | – | – | CC(C)O [2-Propanol, 2-propanol] | 40 mM | 100 mM | 0.13 M | – | – | – | – | – | – | – |
| 4 mM | 7.6 mM | – | – | CCCCO [Butanol, 1-butanol] | 40 mM | 100 mM | – | 55% ±2.3% | 83% ± 1.8% | – | – | – | – | – |
| 7.2 mM | 20.9 mM | – | – | CCO [Ethanol, ethanol] | 80 mM | 90 mM | – | – | – | did not interfere with hydroxylamine oxidation; also recorded: specific inhibitor; also recorded: specific inhibitors of the AMO | specific inhibitor; also recorded: specific inhibitors of the AMO | – | – | – |
| 3.6 mM | – | 4.5 mM | 17 mM (≈ 1980 µg/mL) | CCCCCCCO [Heptanol, 1-heptanol] | 17 mM | 17 mM | – | 10% ± 0.5% | no activity detected | – | – | – | – | – |
| 2.4 mM | – | 2.2 mM | – | CCCCCCO [Hexanol, 1-hexanol] | 15 mM | 20 mM | – | 13% ± 0.9% | 18% ± 5.6% | – | – | – | – | – |
| 0.19 mM | 0.31 mM | – | – | CO [Methanol] | 8 mM | 10 mM | – | not affected | – | specific inhibitors of the AMO | specific inhibitors of the AMO | did not interfere with hydroxylamine oxidation | – | – |
| – | – | – | 2 mM (≈ 260 µg/mL) | CCCCCCCCO [Octanol, 1-octanol] | 10** mM | 20** mM | – | 33% ± 1.4% | no activity detected | – | – | – | 39% | 10 mM |
| 3.6 mM | – | 5.3 mM | – | CCCCCO [Pentanol, 1-pentanol] | 20 mM | 100 mM | – | 53% ± 2.8% | 27% ± 2.6% | – | – | – | – | – |
